The subject of the series is Daudi-Cas9 cells. Nature of the series: Cancer-T cell co-culture genome-wide CRISPR knockout screen (Vγ9Vδ2 T cell killing). It counts as cell-based, human. The conditions noted are these: for score: MAGeCK sgRNA test, co-culture screen; for LFC: log-fold change of sgRNA, surviving cells after co-culture vs baseline; for LFC / treat mean: MAGeCK; for treat mean: sgRNA abundance in surviving Daudi-Cas9 KO cells after 24 hours Vγ9Vδ2 T cell co-culture with zoledronate; for high_in_treatment: sgRNA enriched (TRUE) or depleted (FALSE) after T cell co-culture.

The results in this text go back to patent US20240115705A1, “Regulation of Butyrophilin subfamily 3 member A1 (BTN3A1, CD277)” (The J. Gladstone Institutes, a testamentary trust …, priority 2021, published 2024).

Turning to “AARS2_ATCCGCCTACCCCGCTCCA: library sgRNA targeting AARS2 (listed as DNA, chemistry not fully specified)”, the score amounted to 6.7194, the LFC is reported as −4.9928, the treat mean is 99.765 and the high_in_treatment result is “FALSE”.
In the same order, the values of “ABCF1_AGCATCTCCGCTCATGGCA: library sgRNA targeting ABCF1 (listed as DNA, chemistry not fully specified)” are 5.9741, −2.7126, 504.57 and “FALSE”.
In the same order, the values of “ACACA_GTTAGAGACGCTATTCCGC: library sgRNA targeting ACACA (listed as DNA, chemistry not fully specified)” are 7.4534, −5.2135, 104.65 and “FALSE”.
For “ACAT2_CAAGTGAGTAGAGAAGATC: library sgRNA targeting ACAT2 (listed as DNA, chemistry not fully specified)” the same measures were 6.1049, 1.9893, 1085.8 and “TRUE”.
As to “ACAT2_CAGTCCAGTCAATAGGGAT: library sgRNA targeting ACAT2 (listed as DNA, chemistry not fully specified)”, the score is 12.759, the LFC turned out to be 2.0827, the treat mean is 4335.4 and the high_in_treatment entry is “TRUE”.
For “ALCAM_GTGTGCATGCTAGTAACTG: library sgRNA targeting ALCAM (listed as DNA, chemistry not fully specified)” the same measures were 6.8519, 1.5404, 2462.2 and “TRUE”.
In the same order, the values of “ALG12_TGCGATCACCACTGGCCCG: library sgRNA targeting ALG12 (listed as DNA, chemistry not fully specified)” are 6.0622, −3.0699, 374.84 and “FALSE”.
For “ARL14EPL_TTAATAGCAACAAATAGAG: library sgRNA targeting ARL14EPL (listed as DNA, chemistry not fully specified)” the same measures were 7.215, 3.9422, 227.01 and “TRUE”.
On to “BCCIP_AATCTCTTACTGAAGCTGC: library sgRNA targeting BCCIP (listed as DNA, chemistry not fully specified)”, for which the score is given as 6.3357, the LFC is −5.3797, the treat mean came to 64.834 and the high_in_treatment result is listed as “FALSE”.
In the same order, the values of “BLQC1S1_ACCAAAGCTTCTGTCAGGC: library sgRNA targeting BLQC-1S1 (listed as DNA, chemistry not fully specified)” are 6.0173, −1.8638, 1264.6 and “FALSE”.
In the same order, the values of “BTN2A1_AGCCCCTCATTTCAATGAG: library sgRNA targeting BTN2A1 (listed as DNA, chemistry not fully specified)” are 7.0382, 1.7442, 1965.3 and “TRUE”.
In the same order, the values of “BTN2A1_ATGAGGGGCCATGAAGACG: library sgRNA targeting BTN2A1 (listed as DNA, chemistry not fully specified)” are 7.3174, 2.3876, 1007.3 and “TRUE”.
Regarding “BTN2A1_TCTCCATGCCTGATGCAGA: library sgRNA targeting BTN2A1 (listed as DNA, chemistry not fully specified)”, the score was 11.104, the LFC turned out to be 1.6551, the treat mean came out at 5566.5 and the high_in_treatment entry is reported as “TRUE”.
For “BTN2A1_TCTTGGAAGTAACAGCGGT: library sgRNA targeting BTN2A1 (listed as DNA, chemistry not fully specified)” the same measures were 18.758, 2.4492, 6366.6 and “TRUE”.
For “BTN2A2_TGTGCACTGGTCTCAGGTA: library sgRNA targeting BTN2A2 (listed as DNA, chemistry not fully specified)” the same measures were 13.201, 2.0744, 4689.1 and “TRUE”.
On to “BTN3A1_AGAGTTGAGAGAAATGGCA: library sgRNA targeting BTN3A1 (listed as DNA, chemistry not fully specified)”, for which the score came to 18.173, the LFC came to 2.7951, the treat mean was found to be 4251.1 and the high_in_treatment entry was “TRUE”.
In the same order, the values of “BTN3A1_AGGGAACTTCTGATGGTAC: library sgRNA targeting BTN3A1 (listed as DNA, chemistry not fully specified)” are 8.7326, 1.7308, 3095 and “TRUE”.
With “BTN3A1_CAGGGCGGCGATCCACCTC: library sgRNA targeting BTN3A1 (listed as DNA, chemistry not fully specified)”, the score was 11.298, the LFC is 2.049, the treat mean worked out at 3523.7 and the high_in_treatment result is listed as “TRUE”.
For “BTN3A1_CTTCTTCAGGAGCGCCCAG: library sgRNA targeting BTN3A1 (listed as DNA, chemistry not fully specified)” the same measures were 19.78, 2.2076, 9150.3 and “TRUE”.
For “BTN3A1_GGGAGCCGGTTACTTCCTG: library sgRNA targeting BTN3A1 (listed as DNA, chemistry not fully specified)” the same measures were 21.24, 2.5697, 7249.9 and “TRUE”.
In the same order, the values of “BTN3A1_GTTGATGTGAAGGGTTACA: library sgRNA targeting BTN3A1 (listed as DNA, chemistry not fully specified)” are 9.8596, 1.9969, 2842.7 and “TRUE”.
On to “BTN3A1_TGCTGCTTCTTGGGGGAGC: library sgRNA targeting BTN3A1 (listed as DNA, chemistry not fully specified)”, for which the score was found to be 17.532, the LFC worked out at 2.0651, the treat mean is on record as 8413.1 and the high_in_treatment result was “TRUE”.
In the same order, the values of “BTN3A2_ACGTCACAGCCTCTGACAG: library sgRNA targeting BTN3A2 (listed as DNA, chemistry not fully specified)” are 17.862, 2.2137, 7396.6 and “TRUE”.
In the same order, the values of “BTN3A2_GCGGGATGGCATCACTGCA: library sgRNA targeting BTN3A2 (listed as DNA, chemistry not fully specified)” are 15.831, 2.3489, 5012.6 and “TRUE”.
For “CCDC82_AAGAGCTTGATAGTAACAA: library sgRNA targeting CCDC82 (listed as DNA, chemistry not fully specified)” the same measures were 7.3303, 4.8194, 83.034 and “TRUE”.
With “DKK1_CGCTAGTCCCACCCGCGGA: library sgRNA targeting DKK1 (as printed in the source, key not given here)”, the score is recorded as 6.0866, the LFC is 1.0785, the treat mean stood at 4197.4 and the high_in_treatment entry is “TRUE”.
In the case of “DNLZ_CAGCTCGTCTACACCTGCA: library sgRNA targeting DNLZ (as printed in the source, key not given here)”, the score was 6.2683, the LFC is recorded as −8.2244, the treat mean is 6.7801 and the high_in_treatment result was “FALSE”.
As to “EEFSEC_TCACGCTGGTCGACTGCCC: library sgRNA targeting EEFSEC (listed as DNA, chemistry not fully specified)”, the score came to 6.5622, the LFC is given as −8.5255, the treat mean is on record as 6.8247 and the high_in_treatment result is on record as “FALSE”.
For “EEFSEC_TCATCCGGACCATCATCGG: library sgRNA targeting EEFSEC (listed as DNA, chemistry not fully specified)” the same measures were 6.18, −4.9819, 83.299 and “FALSE”.
In the same order, the values of “FBXW7_AGGTTTCATACACAGTCCA: library sgRNA targeting FBXW7 (as printed in the source, key not given here)” are 7.629, 1.4859, 3314.5 and “TRUE”.
